These results are taken from patent publication US6821743B2, “Human endothelin receptor” (Shionogi Sieyaku Kabushiki Kaisha, priority 1991, dated 2004).

Entries after “also recorded” stand apart in the source; their conditions may differ. Bridge positions count the residues as written; N and C are the ends. Peptide text beside a SMILES is read from it.

Experiment [1] concerns rat A-10 vascular smooth muscle cell. Conditions: J. Biol. Chem. 265, 14044-14049 (1990); cited from earlier work.
For experiment [2] the following is noted: in vivo, previously shown; cited from earlier work.
Experiment [3] addresses T1, ETA-receptor (Homo sapiens, UniProt P25101).
T1 sequence (P25101 21-427): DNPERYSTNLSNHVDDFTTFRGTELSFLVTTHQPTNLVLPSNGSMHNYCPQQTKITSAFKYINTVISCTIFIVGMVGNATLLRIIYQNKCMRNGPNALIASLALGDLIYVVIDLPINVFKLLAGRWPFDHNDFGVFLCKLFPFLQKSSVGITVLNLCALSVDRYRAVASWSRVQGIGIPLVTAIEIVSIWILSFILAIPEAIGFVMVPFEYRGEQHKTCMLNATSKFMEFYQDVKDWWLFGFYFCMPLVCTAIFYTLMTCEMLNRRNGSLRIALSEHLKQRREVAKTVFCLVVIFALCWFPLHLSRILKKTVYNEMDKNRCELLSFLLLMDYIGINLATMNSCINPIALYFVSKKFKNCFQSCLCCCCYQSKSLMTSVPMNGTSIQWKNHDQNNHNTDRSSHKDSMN
As to the kind of experiment: Competitive 125I-ET-1 binding assay on COS-7 cells transfected with CDM8-phETIR. Further details: expressed in transfected cells; host or cells: COS-7 cells. The conditions noted are these: displacement of 50 pM 125I-ET-1, transfected COS-7 cells, 37° C. for 60 min.

The next experiment concerns the target T2, ETB-receptor (Homo sapiens, UniProt P24530).
T2 construct: expressed in transfected cells; host or cells: COS-7 cells
T2 sequence (P24530 27-442): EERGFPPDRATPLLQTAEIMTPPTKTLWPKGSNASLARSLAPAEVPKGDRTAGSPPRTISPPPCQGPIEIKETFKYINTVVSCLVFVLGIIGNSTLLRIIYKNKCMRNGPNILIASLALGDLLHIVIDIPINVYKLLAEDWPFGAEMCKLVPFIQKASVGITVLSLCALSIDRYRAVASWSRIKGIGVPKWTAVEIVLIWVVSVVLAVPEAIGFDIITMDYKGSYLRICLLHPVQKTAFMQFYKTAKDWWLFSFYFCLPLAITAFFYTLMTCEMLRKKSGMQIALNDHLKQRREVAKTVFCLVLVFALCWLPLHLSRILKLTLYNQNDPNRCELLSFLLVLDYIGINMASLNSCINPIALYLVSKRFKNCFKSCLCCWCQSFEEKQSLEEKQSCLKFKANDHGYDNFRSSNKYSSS
The experiment in a line: Competitive 125I-ET-1 binding assay on COS-7 cells transfected with CDM8-pHETBR.

Experiment [4] addresses T1, ETA-receptor. As to the kind of experiment: Inward current in Xenopus laevis oocytes injected with ETA-receptor mRNA. The class given is cell-based. Conditions: 1×10^−7 M peptide, holding potential −60 mV, 20° C.

For the compound `CC[C@H](C)[C@H](NC(=O)[C@H](CC(=O)O)NC(=O)[C@H](CC(C)C)NC(=O)[C@H](Cc1c[nH]cn1)NC(=O)[C@@H]1CSSC[C@H](N)C(=O)N[C@@H](CO)C(=O)N[C@H]2CSSC[C@H](NC(=O)[C@H](CCC(=O)O)NC(=O)[C@H](CCCCN)NC(=O)[C@H](CC(=O)O)NC(=O)[C@H](CCSC)NC(=O)[C@H](CC(C)C)NC(=O)[C@H](CO)NC(=O)[C@H](CO)NC2=O)C(=O)N[C@@H](C(C)C)C(=O)N[C@@H](Cc2ccc(O)cc2)C(=O)N[C@@H](Cc2ccccc2)C(=O)N1)C(=O)N[C@H](C(=O)N[C@@H](Cc1c[nH]c2ccccc12)C(=O)O)[C@@H](C)CC` [ET-1, Endothelin 1], in experiment [1], the “inhibition of binding of 125I-ET-1” value is given as “inhibit the binding of ^125I-ET-1”. In experiment [2], the vasoconstrictor strength entry is recorded as “much more strong vasoconstrictors than ET-3”.
One may read the IC50 as the concentration that inhibits the measured activity by half. A lower IC50 goes with higher potency. `CC[C@H](C)[C@H](NC(=O)[C@H](CC(=O)O)NC(=O)[C@H](CC(C)C)NC(=O)[C@H](Cc1cnc[nH]1)NC(=O)[C@@H]1CSSC[C@H](N)C(=O)N[C@@H](CO)C(=O)N[C@H]2CSSC[C@H](NC(=O)[C@H](CCC(=O)O)NC(=O)[C@H](CCCCN)NC(=O)[C@H](CC(=O)O)NC(=O)[C@H](CC(C)C)NC(=O)[C@H](Cc3c[nH]c4ccccc34)NC(=O)[C@H](CO)NC(=O)[C@H](CO)NC2=O)C(=O)N[C@@H](C(C)C)C(=O)N[C@@H](Cc2ccc(O)cc2)C(=O)N[C@@H](Cc2ccccc2)C(=O)N1)C(=O)N[C@H](C(=O)N[C@@H](Cc1c[nH]c2ccccc12)C(=O)O)[C@@H](C)CC` [ET-2, Endothelin 2] (H-CSCSSWLDKECVYFCHLDIIW-OH; disulfide 1-15, 3-11): the IC50 is 6.1 nM at ETA-receptor [3] and about 1 nM on ETB-receptor (displacement of 125I-ET-1, COS cell transformed with CDM8-pHETBR).
On to `CC[C@H](C)[C@H](NC(=O)[C@H](CC(=O)O)NC(=O)[C@H](CC(C)C)NC(=O)[C@H](Cc1c[nH]cn1)NC(=O)[C@@H]1CSSC[C@H](N)C(=O)N[C@@H](CO)C(=O)N[C@H]2CSSC[C@H](NC(=O)[C@H](CCC(=O)O)NC(=O)[C@H](CCCCN)NC(=O)[C@H](CC(=O)O)NC(=O)[C@H](CC(C)C)NC(=O)[C@H](Cc3c[nH]c4ccccc34)NC(=O)[C@H](CO)NC(=O)[C@H](CO)NC2=O)C(=O)N[C@@H](C(C)C)C(=O)N[C@@H](Cc2ccc(O)cc2)C(=O)N[C@@H](Cc2ccccc2)C(=O)N1)C(=O)N[C@H](C(=O)N[C@@H](Cc1c[nH]c2ccccc12)C(=O)O)[C@@H](C)CC` [ET-2, Endothelin 2] (H-CSCSSWLDKECVYFCHLDIIW-OH; disulfide 1-15, 3-11; N-terminus and C-terminus assumed), for which, in experiment [1], the “inhibition of binding of 125I-ET-1” value is given as “inhibit the binding of ^125I-ET-1”. Further, the “affinity of the receptor (FIG. 4)” value at ETB-receptor (transformant containing CDM8-pHETBR) is “almost the same affinity”. The vasoconstrictor strength entry in experiment [2] is on record as “much more strong vasoconstrictors than ET-3”. Besides, the “inward current recorded from the oocyte” value at ETA-receptor [4] is “the same value of current; also recorded: A similar inward current”.
